Reference: the CheMixHub viscosity set

Assay: xn = mol fraction of the nth substance listed

CCCCCCCCCCCCCCCC + CCCCCCCCCCCC
298.15 K, 101.33 kPa
Conditions	viscosity [mPa·s]
x2 = 0.1077	2.821
x2 = 0.2113	2.643
x2 = 0.3061	2.467
x2 = 0.4097	2.281
x2 = 0.5073	2.102
x2 = 0.6082	1.936
x2 = 0.7053	1.767
x2 = 0.8045	1.636
x2 = 0.905	1.476

O=CC(Cl)(Cl)Cl + C[N+](=O)[O-]
viscosity [mPa·s], 101.33 kPa
Conditions	x1 = 0.1002	x1 = 0.2003	x1 = 0.2963	x1 = 0.4004	x1 = 0.4966	x1 = 0.5833	x1 = 0.6948	x1 = 0.8007	x1 = 0.8965
298.15 K	0.661	0.7023	0.7591	0.8043	0.8435	0.8874	0.9389	0.9876	1.028
323.15 K	0.5186	0.5507	0.5793	0.6238	0.6316	0.6661	0.6895	0.7155	0.7491

ClC(Cl)Cl + Cc1ccc(C)cc1
298.15 K, 101 kPa
Conditions	viscosity [mPa·s]
x1 = 0.4429	0.6167
x1 = 0.5074	0.6102
x1 = 0.5571	0.6084
x1 = 0.5997	0.6031
x1 = 0.6505	0.6003
x1 = 0.6897	0.5954
x1 = 0.7351	0.5903

CCCCCCCCCCCCCCCC + CCCO
101 kPa
Conditions	viscosity [mPa·s]
298.15 K, x2 = 0.3	2.665
308.15 K, x2 = 0.8	1.795

CC(=O)OCc1ccccc1 + CCc1ccccc1
viscosity [mPa·s], 101 kPa
Conditions	x1 = 0.0913	x1 = 0.176	x1 = 0.2732	x1 = 0.3687	x1 = 0.467	x1 = 0.5592	x1 = 0.6706	x1 = 0.7597	x1 = 0.8652	x1 = 0.9304
303.15 K	0.643	0.692	0.755	0.825	0.912	1.006	1.133	1.265	1.428	1.526
313.15 K	0.577	0.616	0.663	0.717	0.784	0.845	0.943	1.033	1.156	1.233

O=CC(Cl)(Cl)Cl + CCO
viscosity [mPa·s], 101 kPa
Conditions	313.15 K	318.15 K	323.15 K
x1 = 0.1	1.126	1.031	0.939
x1 = 0.15	1.406	1.271	1.141
x1 = 0.2	1.753	1.569	1.397
x1 = 0.25	2.2	1.951	1.702
x1 = 0.3	2.783	2.383	2.074
x1 = 0.4	4.053	3.366	2.848
x1 = 0.425	4.352	3.58	3
x1 = 0.45	4.632	3.769	3.141
x1 = 0.475	4.757	3.854	3.201
x1 = 0.49	4.703	3.788	3.143
x1 = 0.5	4.565	3.673	3.064
x1 = 0.55	3.937	3.201	2.706
x1 = 0.6	3.311	2.737	2.392
x1 = 0.7	2.258	1.989	1.757
x1 = 0.75	1.976	1.724	1.53
x1 = 0.8	1.755	1.542	1.38
x1 = 0.9	1.351	1.219	1.12
